Earlier results on one compound are cited in patent US20070243260A1, “Treatment of Childhood Asthma” (priority 2004, published 2007).

Data set [1] concerns asthma. The conditions noted are these: single administration, metered-dose aerosol.
Data set [2] concerns asthma. As to conditions: inhaled; up to 8 hours appears to be maximal.

SMILES strings stand for the structures.

On to `C[N+]1(C)CCC(OC(=O)C(O)(c2ccccc2)C2CCCC2)C1` (centres unmarked) [glycopyrrolate], for which the Period of bronchodilation with asthma [1] was 12 h. In addition, the “Duration of effective treatment” value in the data set with asthma [2] is listed as “up to 12 hours”.
